# System: 186277-243-T-J2-PDC complex spheroid viability
# Assay: Anticancer human tumor 186277-243-T-J2-PDC patient-derived colon adenocarcinoma cell line growth inhibition [GQUAD]
# Conditions: for IC50: curve of first compound; for viability, T/C: stronger effect = lower value
# Outline: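 Viability of tumor cells grown as complex spheroids with endothelial and stromal cells, exposed to drug combinations. Top concentration at or near clinical Cmax (else 10 microM), diluted in half-log increments.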
# [1] = second compound 0.0316 µM, first compound 0.0316 µM
# [2] = second compound 0.0316 µM, first compound 0.316 µM
# [3] = second compound 0.1 µM, first compound 0.0316 µM
# [4] = second compound 0.1 µM, first compound 0.316 µM
# [5] = second compound 0.316 µM, first compound 0.0316 µM
# [6] = second compound 0.316 µM, first compound 0.316 µM
# [7] = second compound 1 µM, first compound 0.0316 µM
# [8] = second compound 1 µM, first compound 0.316 µM
# [9] = second compound 3.16 µM, first compound 0.0316 µM
# [10] = second compound 3.16 µM, first compound 0.316 µM
# [11] = second compound 10 µM, first compound 0.0316 µM
# [12] = second compound 10 µM, first compound 0.316 µM
# 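Wherever viability, T/C is given: 100% = DMSO vehicle control viability.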
smiles,measurement,setting,value
COc1ccc([C@@H](O)c2cc(-c3ncnc4cc(N5CCOCC5)ccc34)c(F)cc2Cl)nn1 + Cc1cnc(CNC(=O)c2c(=O)c3ccc(N4CCCN(C)CC4)nc3n3c2sc2ccccc23)cn1,IC50,second compound 0.0316 µM,1.88 µM
same,IC50,second compound 0.1 µM,1.37 µM
same,IC50,second compound 0.316 µM,0.708 µM
same,IC50,second compound 1 µM,0.397 µM
same,IC50,second compound 3.16 µM,0.129 µM
same,IC50,second compound 10 µM,< 0.0316 µM
same,"viability, T/C",[1],94.7%
same,"viability, T/C","second compound 0.0316 µM, first compound 0.1 µM",100%
same,"viability, T/C",[2],97.5%
same,"viability, T/C","second compound 0.0316 µM, first compound 1 µM",59%
same,"viability, T/C","second compound 0.0316 µM, first compound 3.16 µM",42.5%
same,"viability, T/C","second compound 0.0316 µM, first compound 10 µM",17.5%
same,"viability, T/C",[3],86.7%
same,"viability, T/C","second compound 0.1 µM, first compound 0.1 µM",81.3%
same,"viability, T/C",[4],69.9%
same,"viability, T/C","second compound 0.1 µM, first compound 1 µM",56.6%
same,"viability, T/C","second compound 0.1 µM, first compound 3.16 µM",34.8%
same,"viability, T/C","second compound 0.1 µM, first compound 10 µM",14.3%
same,"viability, T/C",[5],72.3%
same,"viability, T/C","second compound 0.316 µM, first compound 0.1 µM",67%
same,"viability, T/C",[6],60.4%
same,"viability, T/C","second compound 0.316 µM, first compound 1 µM",42.8%
same,"viability, T/C","second compound 0.316 µM, first compound 3.16 µM",32.3%
same,"viability, T/C","second compound 0.316 µM, first compound 10 µM",7.31%
same,"viability, T/C",[7],55.5%
same,"viability, T/C","second compound 1 µM, first compound 0.1 µM",61.1%
same,"viability, T/C",[8],55.8%
same,"viability, T/C","second compound 1 µM, first compound 1 µM",34.9%
same,"viability, T/C","second compound 1 µM, first compound 3.16 µM",23.5%
same,"viability, T/C","second compound 1 µM, first compound 10 µM",6.14%
same,"viability, T/C",[9],57.2%
same,"viability, T/C","second compound 3.16 µM, first compound 0.1 µM",49.1%
same,"viability, T/C",[10],45.6%
same,"viability, T/C","second compound 3.16 µM, first compound 1 µM",34.2%
same,"viability, T/C","second compound 3.16 µM, first compound 3.16 µM",26.6%
same,"viability, T/C","second compound 3.16 µM, first compound 10 µM",5.25%
same,"viability, T/C",[11],46.4%
same,"viability, T/C","second compound 10 µM, first compound 0.1 µM",42.2%
same,"viability, T/C",[12],45%
same,"viability, T/C","second compound 10 µM, first compound 1 µM",34.5%
same,"viability, T/C","second compound 10 µM, first compound 3.16 µM",22.2%
same,"viability, T/C","second compound 10 µM, first compound 10 µM",4.67%
CC[C@@]1(O)C(=O)OCc2c1cc1n(c2=O)Cc2cc3c(CN(C)C)c(O)ccc3nc2-1 + CN(C)c1ccc(Nc2c3ccc(NC(=O)CCN4CCCC4)cc3nc3cc(NC(=O)CCN4CCCC4)ccc23)cc1,IC50,second compound 0.0316 µM,> 0.316 µM
same,IC50,second compound 0.1 µM,0.153 µM
same,IC50,second compound 0.316 µM,0.178 µM
same,IC50,second compound 1 µM,0.206 µM
same,IC50,second compound 3.16 µM,0.209 µM
same,IC50,second compound 10 µM,0.252 µM
same,"viability, T/C","second compound 0.0316 µM, first compound 0.000999 µM",91.1%
same,"viability, T/C","second compound 0.0316 µM, first compound 0.00316 µM",115%
same,"viability, T/C","second compound 0.0316 µM, first compound 0.00999 µM",99.2%
same,"viability, T/C",[1],88.3%
same,"viability, T/C","second compound 0.0316 µM, first compound 0.0999 µM",54.4%
same,"viability, T/C",[2],50.1%
same,"viability, T/C","second compound 0.1 µM, first compound 0.000999 µM",91.5%
same,"viability, T/C","second compound 0.1 µM, first compound 0.00316 µM",104%
same,"viability, T/C","second compound 0.1 µM, first compound 0.00999 µM",92.5%
same,"viability, T/C",[3],70.9%
same,"viability, T/C","second compound 0.1 µM, first compound 0.0999 µM",61.1%
same,"viability, T/C",[4],36.9%
same,"viability, T/C","second compound 0.316 µM, first compound 0.000999 µM",93.9%
same,"viability, T/C","second compound 0.316 µM, first compound 0.00316 µM",102%
same,"viability, T/C","second compound 0.316 µM, first compound 0.00999 µM",95.6%
same,"viability, T/C",[5],81.4%
same,"viability, T/C","second compound 0.316 µM, first compound 0.0999 µM",59.4%
same,"viability, T/C",[6],41.2%
same,"viability, T/C","second compound 1 µM, first compound 0.000999 µM",86.5%
same,"viability, T/C","second compound 1 µM, first compound 0.00316 µM",81.7%
same,"viability, T/C","second compound 1 µM, first compound 0.00999 µM",87.1%
same,"viability, T/C",[7],72%
same,"viability, T/C","second compound 1 µM, first compound 0.0999 µM",65.6%
same,"viability, T/C",[8],41.2%
same,"viability, T/C","second compound 3.16 µM, first compound 0.000999 µM",96.8%
same,"viability, T/C","second compound 3.16 µM, first compound 0.00316 µM",99.5%
same,"viability, T/C","second compound 3.16 µM, first compound 0.00999 µM",105%
same,"viability, T/C",[9],74.4%
same,"viability, T/C","second compound 3.16 µM, first compound 0.0999 µM",65.2%
same,"viability, T/C",[10],42.5%
same,"viability, T/C","second compound 10 µM, first compound 0.000999 µM",93.8%
same,"viability, T/C","second compound 10 µM, first compound 0.00316 µM",85.7%
same,"viability, T/C","second compound 10 µM, first compound 0.00999 µM",98%
same,"viability, T/C",[11],85.1%
same,"viability, T/C","second compound 10 µM, first compound 0.0999 µM",58.3%
same,"viability, T/C",[12],47.9%

# Source: PubChem BioAssay AID2060512 (Molecular Pharmacology Branch, DTP, NCI, 2025)
